Data set [1] deals with human retinal endothelial cells (HREC). Put plainly: Adhesion assay (RT-CIM), HREC. Type of data set: cell-based. The conditions noted are these: FIG. 2. As to the method: Similar to the migration assays, the inhibition activity of the peptide in cellular adhesion was assessed using the RT-CIM technology. In this case, 25,000 cells/well were plated in 16 wells E-plates (Roche, Basel Switzerland) in the presence or absence of the peptide. The adhesion was monitored over time (3 hours) by measuring changes in the electrical impedance, which is a direct measure of the cells adhering on the electrodes. Assays were performed in at least two independent replicates and each replicate was performed using two experimental duplicates.

For the next data set, the system named is vascular leakage. Put plainly: Vascular leakage in Tet/Opsin/VEGF mouse model. Type of data set: in vivo, mice. The conditions noted are these: FIGS. 15A-B. The procedure: Vascular Permeability in Mouse Eyes:
Mice were injected intravitreally with 1 μg of SP2043 (SEQ ID NO: 1) in one eye, and vehicle in the fellow eye and vehicle control was injected in the other eye of adult double transgenic Tet/Opsin/VEGF mice. Three days later, the mice were given 2 mg/mL doxycycline in the drinking water for 3 days. At that time the animals were anesthetized and their pupils dilated as for standard fundoscopy. The eyes were examined to compare the number of animals that had retinal detachments under the two treatments by fundus imaging using Micron II retinal imaging and optical coherence tomography imaging using published protocols.

Data set [2] has as its system microvascular endothelial cell (MEC). Put plainly: MEC tube formation assay. Type of data set: cell-based. The settings on record: 25 μM peptide; FIG. 3 C-D.
In data set [3] the test system is insulin growth factor 1 (IGF1) signaling. Nature of the data set: IGF1 signaling in vitro in LEC. It is filed as cell-based. The settings on record: FIG. 6.
A short description of data set [4]: Accumulation in tumor and organs after systemic intravenous injection. Type of data set: in vivo. The settings on record: systemically intravenously injected; FIG. 31.
The next data set relates to HGF signaling. Nature of the data set: HGF signaling in MDA-MB-231 cells. The settings on record: FIG. 8. Type of data set: cell-based, human.
Data set [5] has as its system human retinal endothelial cells (HREC). Put plainly: Migration assay (RT-CIM), HREC. The settings on record: FIG. 2. Type of data set: cell-based. The procedure:
The inhibitory potential of the peptides was measured using a real time migration assay system based on electrical impedance (RT-CIM, ACEA Biosciences, CA). CIM 16 well plates (Roche, 05665817001) are composed of a top and bottom chamber separated by a microporous (8 μm) polycarbonate membrane. The membrane was coated with fibronectin (20 μg/mL), and 45,000 cells/well in serum free media with or without peptides were added to the top compartment. Media with chemoattractant (i.e., fully supplemented EBM-2) was added to the bottom compartment of the chamber and the plate was incubated at 37° C. for 20 hours. The sensors integrated on the bottom side of the membrane monitor and continuously record changes in impedance as the cells move through the membrane. The RT-CIM technology allows for easy quantification of cell migration by monitoring the cell index derived from the measured impedances. Assays were performed in at least two independent replicates and each replicate was performed using two experimental duplicates. Breast cancer cells MDA-MB-231 are not suitable for the RT-CIM type experiments due to their thin elongated phenotype, thus the inhibition of migration was investigated using a wound healing type assay. This assay was performed using the Oris Pro Migration assay (Platypus Technologies, CMA 1.101). […]

Data set [6] deals with choroidal neovascularization. Put plainly: Laser induced choroidal neovascularization (CNV) model. Type of data set: in vivo, mice. As to the method: Mouse Model of Choroidal Neovascularization (CNV).
Laser photocoagulation-induced rupture of Bruch's membrane was used to generate CNV. Briefly, 4-5 week old female C57BL/6J mice were anesthetized with xylazine hydrochloride (10 mg/kg) and ketamine hydrochloride (50 mg/kg) and the pupils were dilated with 1% tropicamide (Alcon Labs, Inc., Fort Worth, Tex., USA). Three burns of 532-nm diode laser photocoagulation (75 μm spot size, 0.1 s duration, 120 mW) were delivered to each retina using the slit lamp delivery system of an OcuLight GL Photocoagulator (Index, Mountain View, Calif., USA) and a hand-held cover slide as a contact lens. Burns were performed in the 9, 12 and 3 o'clock positions of the posterior pole of the retina. Production of a bubble at the time of laser photocoagulation, which indicates rupture of Bruch's membrane, is an important factor in obtaining CNV, so only burns in which a bubble was produced were included in the study. Treatments were begun seven days after laser photocoagulation and included intravitreous injections of 0.1% of SP2043 (SEQ ID NO: 1) (1 μg in a volume of 1 μL), 1% ([…] in a volume of 1 μL of SP2043 (SEQ ID NO: 1)) or vehicle under a dissecting microscope with a Harvard Pump Microinjection System (Harvard Apparatus, Holliston, Mass.) and pulled glass micropipettes. Some mice were euthanized for baseline measurement. Fourteen days after laser, the remaining mice were used to measure the amount of CNV at Bruch's membrane rupture sites. Two weeks after rupture of Bruch's membrane, mice were anesthetized and perfused with fluorescein-labeled dextran (2×10^6 average mol wt, Sigma-Aldrich, St. Louis, Mo., USA) and choroidal flat mounts were prepared as described previously. Briefly, the eyes were removed, fixed for 1 h in 10% phosphate-buffered formalin, and the cornea and lens were removed. […] Flat mounts were examined by fluorescence microscopy using an Axioskop microscope (Zeiss, Thornwood, N.Y., USA) and images were digitized using a 3 CCD color video camera (IK-TU40A, Toshiba, Tokyo, Japan) and a frame grabber. […]

“LRRFSTAPFAFIDINDVINF (Artificial sequence based on human Collagen Type IV protein) [SP2043]”: in data set [1], the “adhesion of HREC” value is listed as “inhibit”. Moreover, the “vascular leakage in Tet/Opsin/VEGF mouse model” value in the data set with vascular leakage is recorded as “inhibited”. The MEC tube formation entry in data set [2] is on record as “inhibit”. Further, the “IGF1 signaling in LEC” value in data set [3] was “inhibit”. Besides, the “accumulation in tumor and other organs” value in data set [4] is given as “accumulated in tumor as well as other organs”. Moreover, the “HGF signaling in MDA-MB-231 cells” value with HGF signaling is given as “inhibit”. Also, the “migration of HREC” value in data set [5] is on record as “inhibit”. Besides, the “effect in combination with other anti-angiogenesis agents, such as aflibercept” value in data set [6] (laser-induced choroidal neovascularization model in mice, FIG. 28) is “increased effect”. Moreover, in data set [6] (mouse, FIGS. 13A-B), the “neovascularization in laser induced CNV model” value was “inhibited” and the “potency in laser induced CNV model compared with aflibercept” value is reported as “more potently than aflibercept”.

The values above are taken from patent US10774112B2, “Biomimetic peptide and biodegradable delivery platform for the treatment of angiogenesis- and lymphangiogenesis-dependent diseases” (THE JOHNS HOPKINS UNIVERSITY, priority 2013, dated 2020).
